The values that follow come from patent publication US11603355B2, “Charged ion channel blockers and methods for use” (Nocion Therapeutics, Inc., priority 2019, dated 2023).

By inhibition is commonly meant the relative decrease from the control value, in per cent.

Counter-ions that a name gives are not always drawn. Some results are limits rather than exact numbers.

The target of the first assay is T1, NaV1.7 (Homo sapiens, UniProt Q15858).
T1 construct: expressed in transfected cells; host or cells: HEK293 (tetracycline-inducible)
T1 sequence (Q15858 whole entry): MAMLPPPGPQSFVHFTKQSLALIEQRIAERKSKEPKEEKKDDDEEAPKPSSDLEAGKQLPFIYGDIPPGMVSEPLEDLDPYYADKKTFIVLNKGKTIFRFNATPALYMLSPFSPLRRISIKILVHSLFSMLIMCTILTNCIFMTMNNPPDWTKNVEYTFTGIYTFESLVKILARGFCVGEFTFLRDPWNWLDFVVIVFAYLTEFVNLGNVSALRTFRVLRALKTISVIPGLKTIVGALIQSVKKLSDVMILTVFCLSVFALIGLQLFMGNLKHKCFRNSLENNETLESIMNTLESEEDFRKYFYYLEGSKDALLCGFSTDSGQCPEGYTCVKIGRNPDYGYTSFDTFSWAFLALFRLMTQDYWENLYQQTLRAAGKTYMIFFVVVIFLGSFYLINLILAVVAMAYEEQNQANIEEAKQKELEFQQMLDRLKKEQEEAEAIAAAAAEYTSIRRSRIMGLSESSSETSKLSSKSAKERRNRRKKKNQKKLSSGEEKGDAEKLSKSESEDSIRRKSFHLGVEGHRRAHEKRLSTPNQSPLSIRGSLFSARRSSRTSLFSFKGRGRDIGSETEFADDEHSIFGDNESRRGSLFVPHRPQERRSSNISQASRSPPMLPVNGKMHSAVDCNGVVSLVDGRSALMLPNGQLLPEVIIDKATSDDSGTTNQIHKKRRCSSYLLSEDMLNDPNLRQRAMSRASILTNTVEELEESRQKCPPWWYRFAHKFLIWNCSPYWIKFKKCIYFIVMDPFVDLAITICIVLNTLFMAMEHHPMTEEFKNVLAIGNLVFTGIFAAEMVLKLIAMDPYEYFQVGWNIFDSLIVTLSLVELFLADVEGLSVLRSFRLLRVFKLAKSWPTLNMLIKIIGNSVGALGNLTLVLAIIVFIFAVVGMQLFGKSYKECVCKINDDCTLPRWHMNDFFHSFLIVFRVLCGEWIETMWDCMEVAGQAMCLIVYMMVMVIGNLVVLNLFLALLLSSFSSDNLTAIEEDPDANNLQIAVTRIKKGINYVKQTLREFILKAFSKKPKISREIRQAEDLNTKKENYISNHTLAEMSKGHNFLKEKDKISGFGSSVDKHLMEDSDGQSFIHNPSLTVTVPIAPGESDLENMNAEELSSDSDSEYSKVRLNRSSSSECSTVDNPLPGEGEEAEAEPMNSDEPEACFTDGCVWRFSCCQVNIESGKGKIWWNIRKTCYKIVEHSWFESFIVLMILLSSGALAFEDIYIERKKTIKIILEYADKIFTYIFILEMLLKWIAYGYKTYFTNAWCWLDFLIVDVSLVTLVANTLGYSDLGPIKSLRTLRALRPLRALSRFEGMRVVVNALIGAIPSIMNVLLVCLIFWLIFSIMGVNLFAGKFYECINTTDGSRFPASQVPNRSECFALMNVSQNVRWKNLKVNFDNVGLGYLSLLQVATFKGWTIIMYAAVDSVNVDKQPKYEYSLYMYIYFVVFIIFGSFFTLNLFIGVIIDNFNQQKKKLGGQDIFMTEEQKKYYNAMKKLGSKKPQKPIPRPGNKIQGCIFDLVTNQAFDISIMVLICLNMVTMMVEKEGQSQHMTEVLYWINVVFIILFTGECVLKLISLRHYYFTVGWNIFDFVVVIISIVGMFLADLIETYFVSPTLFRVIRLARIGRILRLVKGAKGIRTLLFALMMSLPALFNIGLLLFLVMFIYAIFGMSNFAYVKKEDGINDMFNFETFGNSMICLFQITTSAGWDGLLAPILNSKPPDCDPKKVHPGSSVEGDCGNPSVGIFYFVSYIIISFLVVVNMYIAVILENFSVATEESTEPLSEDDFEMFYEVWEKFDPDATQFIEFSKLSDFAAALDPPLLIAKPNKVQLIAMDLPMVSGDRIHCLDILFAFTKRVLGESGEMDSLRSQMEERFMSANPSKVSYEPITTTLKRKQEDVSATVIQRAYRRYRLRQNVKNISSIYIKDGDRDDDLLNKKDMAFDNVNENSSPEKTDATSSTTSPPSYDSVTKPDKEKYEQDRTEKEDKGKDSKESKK
Put plainly: Manual patch clamp, external block of NaV1.7 current. Format: cell-based. The conditions noted are these: % inhibition at 10 μM test concentration, compound in external solution, HEK293 cells. The protocol:
Representative compounds of the invention were synthesized according to the described methods and tested for the ability to inhibit voltage-gated sodium channels.
NaV1.7 was expressed in HEK293 cells upon induction with tetracycline. Cells were cultured in DMEM containing 10% dialyzed Fetal Bovine Serum (VWR, Radnor, Pa.), 1% Glutamax (VWR, Radnor, Pa.), 1% Penicillin-Streptomycin (VWR, Radnor, Pa.), 100 mg/L Hygromycin (Thermo Fisher Scientific, Waltham, Mass. and 5 mg/L Blasticidin (Alfa Aesar, Haverhill, Mass.). Cells were grown and maintained at 37° C. in a humidified environment containing 10% CO2 in air. Cells were detached from the culture flask for passage and harvested using 0.05% Trypsin-EDTA (Thermo Fisher Scientific, Waltham, Mass.). To induce NaV1.7, cells were induced with tetracycline (0.1-1 μg/mL, IBI Scientific, Peosta, Iowa) the day before recording and plated onto 24-well plates. Cells were washed with DPBS (VWR, Radnor, Pa.), trypsinized and then triturated five times in 10 mL of growth media to break apart cell aggregates. For one 24-well plate, 2 mL of cell suspension was mixed with 23 mL of fresh growth media and 0.1-1 μg/mL tetracycline added. 1 ml of mixed media with cells was then added to each well of a 24-well plate, with a 12 mm coverslip already placed in the bottom of the well. Cells were then incubated in 37° C. and 10% CO2 overnight.
The intracellular solution contained the following (in mM) CsCl 135, NaCl 10, EGTA 10, HEPES 10, MgCl2 2, adjusted to pH 7.2 with CsOH. The external solution was a normal Ringer solution containing (in mM) NaCl 155, HEPES 10, glucose 10, KCl 3.5, CaCl2 1.5, MgCl2 1 adjusted to pH 7.4 with NaOH. CsCl is from Alfa Aesar, Haverhill, Mass. All other chemicals are from Sigma-Aldrich, St. Louis, Mo. In order to test the degree of internal block by test compounds the compounds were dissolved in internal solution at the indicated test concentration. […] In order to test the degree of external block by test compounds the compounds were dissolved in external solution at the indicated test concentration.
18-24 hours after cells were induced with tetracycline, coverslips were placed into a chamber filled with Normal Ringer solution at room temperature and the chamber placed on a microscope. Pipettes were pulled from borosilicate glass on a P97 puller (Sutter Instrument, Novato, Calif.) and polished with a MF-830 Microforge (Narishige International USA, Inc., Amityville, N.Y.) to have a resistance of 1.5-2.5 MΩ when filled with CsCl internal solution at room temperature. Healthy cells (those that are round and translucent with no visible blemishes) were chosen for seal formation. A seal was formed between the pipette and the cell, and a brief pulse of suction was used to “break in” and establish the whole-cell configuration. The membrane potential was held at −100 mV before the voltage protocol began. Only cells with series resistance between 1.5-5 MΩ were retained for analysis. The voltage protocol was as follows: Cells were held at −100 mV for 12 ms followed by a hyperpolarizing step to −105 mV for 12 ms to monitor the leak. Cells were then stepped back to −100 mV for 40 ms. Cells were then depolarized to −20 mV for 10 ms and then returned to −100 mV for 26 ms.
Once the recording was started, the voltage protocol was run at 30 second intervals for 5 minutes to get a stable baseline. This is followed by 5 Hz stimulation of the same voltage protocol run until the end of experiment. […] The test compound is added for 5 minutes before washing out with normal Ringer's solution. Currents were recorded using PatchMaster software with Heka EPC10 (HEKA Electronics, Lambrecht, Germany). Only cells with inward current amplitudes at −20 mV between 400 pA and 4 nA were accepted. In addition, cells having leak currents greater than 10% of their current amplitudes were discarded. […]
A general note: The patch-clamp technique gives a direct electrical read-out from membranes.
“1-benzyl-1-(2-((2-(dimethylcarbamoyl)-6-methylphenyl) amino)-2-oxoethyl) azepan-1-ium bromide [Compound 81A]”: the “Nav1.7 Extracellular Inhibition” value is given as “+ (“+” (<40%))”.

The same assay, now with this note: % inhibition at 10 μM test concentration, compound in external solution, HEK293 cells, read-out: Nav1.7 Extracellular Inhibition.
As to `[2H]c1c([2H])c([2H])c(C[N+]2(CC(=O)Nc3c(C)cccc3C)CCCCCC2)c([2H])c1[2H].[Cl-]` [Compound 33A, 1-(2-((2,6-dimethylphenyl)amino)-2-oxoethyl)-1-((phenyl-d5)methyl) azepan-1-ium chloride], the inhibition at 10 µM is 40 to 70%. Still for that read-out and setting: to `Cc1cccc(C)c1NC(=O)C[N+]1(Cc2ccccc2)CCCC(C(N)=O)C1.[Br-]` (mixture of isomers) [Compound 53A, 1-benzyl-3-carbamoyl-1-(2-((2,6-dimethylphenyl)amino)-2-oxoethyl) piperidin-1-ium bromide] belongs under 40%; to `Cc1cccc(C)c1N(C)C(=O)C[N+]1(Cc2ccccc2)CCCCCC1` [Compound 38A, 1-benzyl-1-(2-((2,6-dimethylphenyl) (methyl)amino)-2-oxoethyl) azepan-1-ium formate], under 40%; to `Cc1cccc(C)c1NC(=O)C[N+]1(Cc2ccccc2)CCCC(C(=O)OC(C)C)C1` (mixture of isomers) [Compound 46A, 1-benzyl-1-(2-((2,6-dimethylphenyl)amino)-2-oxoethyl)-3-(isopropoxycarbonyl) piperidin-1-ium trifluoroacetate salt], 40 to 70%. Turning to `COC(=O)C1CC[N+](CC(=O)Nc2c(C)cccc2C)(Cc2ccccc2)CC1.[Br-]` (stereo not shown) [Compound 44A, 1-benzyl-1-(2-((2,6-dimethylphenyl)amino)-2-oxoethyl)-4-(methoxycarbonyl) piperidin-1-ium bromide], the inhibition at 10 µM is under 40%. On the same count and under the same terms, the value for `Cc1cccc(-c2ccccc2)c1NC(=O)C[N+]1(Cc2ccccc2)CCCCCC1.[Br-]` [Compound 76A] was 40 to 70%; that for `COC(=O)c1cccc(C[N+]2(CC(=O)Nc3c(C)cccc3C)CCCCC2)c1.[Br-]` [Compound 35A, 1-(2-((2,6-dimethylphenyl)amino)-2-oxoethyl)-1-(3-(methoxycarbonyl)benzyl) piperidin-1-ium bromide] was under 40%. Still for that read-out and setting: the value for `Cc1cccc(F)c1NC(=O)C[N+]1(Cc2ccccc2)CCCCCC1.[Br-]` [Compound 69A, 1-benzyl-1-(2-((2-fluoro-6-methylphenyl)amino)-2-oxoethyl)azepan-1-ium bromide] was under 40%; that for `CC[N+](CC)(CCCc1ccccc1)CC(=O)Nc1c(C)cccc1C.[Br-]` [Compound 86A, N-(2-((2,6-dimethylphenyl)amino)-2-oxoethyl)-N, N-diethyl-3-phenylpropan-1-aminium bromide] was under 40%. For the molecule `Cc1cccc(C)c1N1CCC([N+]2(Cc3ccccc3)CCCCCCC2)C1=O.[Br-]` (stereo not shown) [Compound 90A], the inhibition at 10 µM is under 40%. Turning to `CCCOC(=O)C1CCC[N+](CC(=O)Nc2c(C)cccc2C)(Cc2ccccc2)C1.[Br-]` (stereo not shown) [Compound 47A, 1-benzyl-1-(2-((2,6-dimethylphenyl)amino)-2-oxoethyl)-3-(propoxycarbonyl) piperidin-1-ium bromide], the inhibition at 10 µM lay in the range of 40 to 70%. On the same count and under the same terms, the value for `CCC(=O)Oc1cccc(C)c1NC(=O)C[N+]1(Cc2ccccc2)CCCCCC1.[Br-]` [Compound 80A, 1-benzyl-1-(2-((2-methyl-6-(propionyloxy)phenyl)amino)-2-oxoethyl) azepan-1-ium bromide] was under 40%.
